The results in this text go back to ChEMBL document CHEMBL1150860, “Cox-2 inhibitory effects of naturally occurring and modified fatty acids” (J Nat Prod, 2001).

Test [1] deals with T1, Prostaglandin G/H synthase 2 (Ovis aries, UniProt P79208).
T1 sequence (P79208 whole entry): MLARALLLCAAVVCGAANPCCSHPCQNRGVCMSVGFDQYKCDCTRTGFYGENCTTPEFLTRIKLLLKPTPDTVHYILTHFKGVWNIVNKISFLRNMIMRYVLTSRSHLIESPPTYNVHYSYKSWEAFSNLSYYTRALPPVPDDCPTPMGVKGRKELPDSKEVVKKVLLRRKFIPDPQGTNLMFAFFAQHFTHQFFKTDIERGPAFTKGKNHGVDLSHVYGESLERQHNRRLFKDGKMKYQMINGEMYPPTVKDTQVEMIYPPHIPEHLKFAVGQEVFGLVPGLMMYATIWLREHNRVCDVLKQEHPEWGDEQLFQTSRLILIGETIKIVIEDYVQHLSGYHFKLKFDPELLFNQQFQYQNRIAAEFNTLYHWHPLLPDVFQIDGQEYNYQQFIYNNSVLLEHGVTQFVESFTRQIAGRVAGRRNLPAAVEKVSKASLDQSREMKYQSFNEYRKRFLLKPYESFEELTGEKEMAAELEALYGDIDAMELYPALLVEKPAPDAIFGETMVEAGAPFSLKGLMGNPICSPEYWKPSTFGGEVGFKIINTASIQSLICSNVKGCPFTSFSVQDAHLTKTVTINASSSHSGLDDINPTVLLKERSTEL
In words: Inhibition of sheep COX2-mediated prostaglandin biosynthesis using [1-14C]arachidonic acid.

Test [2] in a line: Selectivity ratio for IC50 for sheep COX2 to IC50 for […].
The target of test [3] is T2, Prostaglandin G/H synthase 1 (Bos taurus, UniProt O62664).
T2 sequence (O62664 whole entry): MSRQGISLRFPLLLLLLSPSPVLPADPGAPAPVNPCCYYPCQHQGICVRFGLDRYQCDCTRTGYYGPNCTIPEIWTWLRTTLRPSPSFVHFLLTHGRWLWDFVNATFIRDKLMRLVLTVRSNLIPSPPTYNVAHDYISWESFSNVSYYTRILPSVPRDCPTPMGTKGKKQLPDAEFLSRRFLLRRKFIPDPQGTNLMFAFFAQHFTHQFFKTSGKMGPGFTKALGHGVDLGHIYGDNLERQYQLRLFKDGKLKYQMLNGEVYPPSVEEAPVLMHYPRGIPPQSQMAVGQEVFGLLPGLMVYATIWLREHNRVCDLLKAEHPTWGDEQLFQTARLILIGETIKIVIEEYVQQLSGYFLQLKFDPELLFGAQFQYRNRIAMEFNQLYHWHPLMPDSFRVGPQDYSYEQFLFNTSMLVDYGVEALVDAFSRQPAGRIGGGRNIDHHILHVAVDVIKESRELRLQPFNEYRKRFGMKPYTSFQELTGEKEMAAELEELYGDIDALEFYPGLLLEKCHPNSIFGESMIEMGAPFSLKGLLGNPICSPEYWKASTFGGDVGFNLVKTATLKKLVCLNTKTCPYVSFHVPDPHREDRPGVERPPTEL
In words: Inhibition of bovine COX1-mediated prostaglandin biosynthesis using [1-14C]arachidonic acid.

The structures appear in SMILES notation. pIC50: −log10 of the molar value. Bounds are passed on as bounds.

A word on the pIC50: it is the IC50 on a negative log10 scale, so that one unit is a factor of ten.

Turning to `CC/C=C\C/C=C\C/C=C\C/C=C\CCSCC(=O)O`, the values for the pIC50 in test [1] and in test [3] were 3.80 and 4.08, respectively. Besides, the Ratio IC50 in test [2] came to 1.9.
Turning to `CC/C=C\C/C=C\C/C=C\C/C=C\CCSCCCC(=O)O`, the pIC50 in test [1] is 5.41; in test [3], 4.59. In addition, the Ratio IC50 in test [2] stood at 0.2.
Regarding `CC/C=C\C/C=C\C/C=C\C/C=C\CCOCC(=O)O`, the pIC50 in test [1] and in test [3] was less than 3.30 throughout.
Take `CC/C=C\C/C=C\C/C=C\CC/C=C/COCC(=O)O`: the pIC50 in test [1] and in test [3] was less than 3.30 each time.
In the case of `CC/C=C\C/C=C\C/C=C\C/C=C\CC/C=C/COCC(=O)O`, the pIC50 was 3.74 in test [1] and 4.30 in test [3]. In addition, the Ratio IC50 in test [2] amounted to 3.6.
The like results for `CC/C=C\C/C=C\C/C=C\CC/C=C/CSCCCC(=O)O` were, in that order, 3.92, 4.09 and 1.4.
For `CC/C=C\C/C=C\C/C=C\C/C=C\C/C=C\C/C=C\CCC(=O)O` [DOCONEXENT], in that order: 5.01, 4.82 and 0.7.
For `CC/C=C\C/C=C\C/C=C\C/C=C\C/C=C\CCCC(=O)O` [ICOSAPENT], in that order: 5.15, 4.89 and 0.5.
Take `CCCCC/C=C\C/C=C\CCCCCCCC(=O)O` [LINOLEIC ACID]: the pIC50 was 4.03 in test [1] and 3.77 in test [3]. In test [2], the Ratio IC50 is 0.6.
The like results for `CC/C=C\C/C=C\C/C=C\CCCCCCCC(=O)O` [LINOLENIC ACID] were, in that order, 4.92, 4.03 and 0.1.
As for `CCCCCCCCCCCCCC(=O)O` [MYRISTIC ACID], the pIC50 in test [1] and in test [3] was less than 3.30 throughout.
Take `CCCCCCCC/C=C\CCCCCCCC(=O)O` [OLEIC ACID]: the pIC50 in test [1] and in test [3] was less than 3.30 throughout.
In the case of `CCCCCCCCCCCCCCCC(=O)O` [PALMITIC ACID], the pIC50 in test [1] and in test [3] was less than 3.30 in each case.
Regarding `CCCCCCCCCCCCCCC(=O)O` [PENTADECANOIC ACID], the pIC50 in test [1] and in test [3] was less than 3.30 each time.
Take `CCCCCCCCCCCCCCCCCC(=O)O` [STEARIC ACID]: the pIC50 in test [1] and in test [3] was less than 3.30 throughout.
